Among the data in US10966970B2, “Fused tricyclic compounds and uses thereof in medicine” (SUNSHINE LAKE PHARMA CO., LTD., priority 2017, dated 2021) are IC50 values, retold here.

Test [1] concerns HBV DNA replication. As to the kind of experiment: Inhibition of HBV virus replication (HBV DNA in supernatant, qPCR). As to conditions: Hepatitis B virus, 240 h; HepG2.2.15 cells, 10 days treatment, supernatant HBV DNA by qPCR. Type of test: cell-based. How it is done:
(§1) The chromosomes of HepG2.2.15 cells (SELLS, PNAS, 1987 and SELLS, JV, 1988) integrate the complete HBV genome and stably express viral RNA and viral proteins. HepG2.2.15 cells are able to secrete mature HBV particles and HBsAg into the culture medium. Viral particle DNA and HBsAg secreted by HepG 2.2.15 cells can be quantified by qPCR and ELISA methods, and the effects of the compound on virus replication and HBsAg secretion are thus examined.
HepG 2.2.15 Cells (8,000 per well) were seeded into 96-well cell culture plates in duplicate and cultured for 3 days until the cells grew to fill in pores. Cells were treated with 4-fold serial diluted compound solution for 10 days, and the compound solution was exchanged once every other day, the final concentration of DMSO in all wells was 0.5% and DMSO was used as a drug-free control. On the eleventh day, the supernatant was collected for quantitative detection of HBV DNA.
qPCR method was used for detection of viral genomic DNA, HBV primers were as follows: HBV-For-202, […]; HBV-Rev-315, […].
Using the SY BR Premix Ex Taq II—Takara DRR081S kit, 1 ≈L of the cell culture supernatant was used as a template, a plasmid containing the HBV genome was used for plotting a standard curve, and virus copy number was calculated using the standard curve. Concentration-virus copy number was treated with Graphpad Prism 5 software and the IC50 of inhibition of virus replication by compounds was calculated by a four-parameter nonlinear regression model.
(In general: In qPCR the cycle at which signal appears reflects the starting amount.)

Test [2] concerns HBsAg secretion. As to the kind of experiment: Inhibition of HBsAg secretion (ELISA). In kind it is cell-based, HBV. The following applies: Hepatitis B virus, HepG2.2.15, 240 h, read-out: HbsAg IC50 (nM). How it is done:
as §1
HepG 2.2.15 Cells (8,000 per well) were seeded into 96-well cell culture plates in duplicate and cultured for 3 days until the cells grew to fill in pores. Cells were treated with 4-fold serial diluted compound solution for 10 days, and the compound solution was exchanged once every other day, the final concentration of DMSO in all wells was 0.5% and DMSO was used as a drug-free control. On the eleventh day, the supernatant was collected for quantitative detection of HBsAg.
The level of HBsAg secreted by the cells after treatment with the compound was detected by ELISA. The method used a hepatitis B surface antigen diagnostic kit (Shanghai K ehua Biotechnology Co., Ltd. 510910113). 25 ≈L of the supernatant to be examined (diluted to 75 ≈L in PBS) was added to each well of the ELISA plate, and a kit-positive control and a negative control were set. The ELISA plates were blocked with mounting paper and incubated at 37 eC for 60 minutes. The ELISA plate was took out, and the mounting paper was removed, then 50 ≈L of enzyme conjugate was added into each well. After shaking for 10 seconds, the ELISA plates were blocked with mounting paper and incubated at 37 eC for 30 minutes. The ELISA plate was took out, and the mounting paper was removed, and the ELISA plate was repeated washing five times: liquid in the wells was discard each time; the wells was filled with washing solution, then stood for 60 seconds and spined dry; and liquid residue on blotting paper was patted dry. After the washing was completed, to all wells was immediately added a mixture of freshly prepared developer A and developer B: 100 ≈L per well. After shaking for 10 seconds on oscillator, the ELISA plates were blocked with mounting paper and incubated at 37 eC for 30 minutes. To all wells were added 50 ≈L of stop solution. Data were read at a wavelength of 450 nm on an Envision plate reader. Concentration-HBsAg OD450 value was treated with Graphpad Prism 5 software and the IC50 of inhibition of HBsAg secretion by compounds was calculated by a four-parameter nonlinear regression model.
Background: ELISA stands for enzyme-linked immunosorbent assay.

As usually defined, the IC50 is the concentration that inhibits the measured activity by half. As for `COc1cc2c(cc1-c1nccs1)CC(C(C)C)n1cc(C(=O)O)c(=O)cc1-2` (stereo not drawn) [Example 75, 6-isopropyl-10-methoxy-2-oxo-9-(thiazol-2-yl)-6,7-dihydro-2H-pyrido[2,1-a]isoquinoline-3-carboxylic Acid], the half-maximal inhibitory concentration (IC50) in test [1] is 2.1 nM; in test [2], 2.41 nM.
On the same counts, the results for `COCCCOc1cc2c(cc1-c1ccccn1)-c1cc(=O)c(C(=O)O)cn1C(C(C)C)C2` (stereo not drawn) [Example 67, 6-isopropyl-9-(3-methoxypropoxy)-2-oxo-10-(pyridin-2-yl)-6,7-dihydro-2H-pyrido[2,1-a]isoquinoline-3-carboxylic Acid] are 4.36 nM and 7.77 nM.
The like results for `COCCCOc1cc2c(cc1-c1ncco1)-c1cc(=O)c(C(=O)O)cn1C(C(C)C)C2` (stereo not drawn) [Example 10, 6-isopropyl-9-(3-methoxypropoxy)-10-(oxazol-2-yl)-2-oxo-6,7-dihydro-2H-pyrido[2,1-a]isoquinoline-3-carboxylic Acid] were, in that order, 7.29 nM and 10.5 nM.
Regarding `CCOCc1cc2c(cc1OCCCOC)CC(C(C)C)n1cc(C(=O)O)c(=O)cc1-2` (stereo not drawn) [Example 7, 10-(ethoxymethyl)-6-isopropyl-9-(3-methoxypropoxy)-2-oxo-6,7-dihydro-2H-pyrido[2,1-a]isoquinoline-3-carboxylic Acid], the half-maximal inhibitory concentration (IC50) is 8.16 nM in test [1] and 13.5 nM in test [2].
For `COC(=O)c1cc2c(cc1-c1ccc(Cl)s1)CC(C(C)C)n1cc(C(=O)O)c(=O)cc1-2` (stereo not drawn) [Example 73, 9-(5-chlorothiophen-2-yl)-6-isopropyl-10-(methoxycarbonyl)-2-oxo-6,7-dihydro-2H-pyrido[2,1-a]isoquinoline-3-carboxylic Acid], the IC50 came out at 3.88 nM in test [1] and 12.7 nM in test [2].
The like results for `COc1cc2c(cc1-c1cccs1)CC(C(C)C)n1cc(C(=O)O)c(=O)cc1-2` (stereo not drawn) [Example 17, 6-isopropyl-10-methoxy-2-oxo-9-(thiophen-2-yl)-6,7-dihydro-2H-pyrido[2,1-a]isoquinoline-3-carboxylic Acid] were, in that order, 3.6 nM and 2.14 nM.
For `COC(=O)c1cc2c(cc1N1CC[C@H](OC(C)=O)C1)CC(C(C)C)n1cc(C(=O)O)c(=O)cc1-2` (stereo partly drawn) [Example 47, 9-((S)-3-acetoxypyrrolidin-1-yl)-6-isopropyl-10-(methoxycarbonyl)-2-oxo-6,7-dihydro-2H-pyrido[2,1-a]isoquinoline-3-carboxylic Acid], the concentration for half-maximal inhibition (IC50) in test [1] worked out at 6.35 nM.
On the same count and under the same terms, under `COCCCOc1cc2c(cc1C(=O)CCC(F)(F)F)-c1cc(=O)c(C(=O)O)cn1C(C(C)C)C2` (stereo not drawn) [Example 53, 6-isopropyl-9-(3-methoxypropoxy)-2-oxo-10-(4,4,4-trifluorobutanoyl)-6,7-dihydro-2H-pyrido[2,1-a]isoquinoline-3-carboxylic Acid] stands 7.99 nM.
On to `COc1cc2c(cc1-c1ncc(C(C)C)s1)CC(C(C)C)n1cc(C(=O)O)c(=O)cc1-2` (stereo not drawn) [Example 77, 6-isopropyl-9-(5-isopropylthiazol-2-yl)-10-methoxy-2-oxo-6,7-dihydro-2H-pyrido[2,1-a]isoquinoline-3-carboxylic Acid], for which the IC50 is 2.79 nM in test [1] and 2.87 nM in test [2].
In the case of `COCCCOc1cc2c(cc1C(=O)OC)-c1cc(=O)c(C(=O)O)cn1C(C(C)C)C2` (stereo not drawn) [Example 1, 6-isopropyl-10-(methoxycarbonyl)-9-(3-methoxypropoxy)-2-oxo-6,7-dihydro-2H-pyrido[2,1-a]isoquinoline-3-carboxylic Acid], the 50% inhibitory concentration (IC50) in test [1] was found to be 6.3 nM; in test [2], 2.25 nM.
In the case of `COCCCOc1cc2c(cc1-c1cccs1)-c1cc(=O)c(C(=O)O)cn1C(C(C)C)C2` (stereo not drawn) [Example 15, 6-isopropyl-9-(3-methoxypropoxy)-2-oxo-10-(thiophen-2-yl)-6,7-dihydro-2H-pyrido[2,1-a]isoquinoline-3-carboxylic Acid], the IC50 came out at 0.39 nM in test [1] and 0.77 nM in test [2].
As for `COC(=O)c1cc2c(cc1-c1ccco1)CC(C(C)C)n1cc(C(=O)O)c(=O)cc1-2` (stereo not drawn) [Example 32, 9-(furan-2-yl)-6-isopropyl-10-(methoxycarbonyl)-2-oxo-6,7-dihydro-2H-pyrido[2,1-a]isoquinoline-3-carboxylic Acid], the IC50 is 7.57 nM in test [1] and 9.62 nM in test [2].
On the same counts, the results for `CC(C)C1Cc2cc(OCC3CCOCC3)c(-c3nccs3)cc2-c2cc(=O)c(C(=O)O)cn21` (stereo not drawn) [Example 21, 6-isopropyl-2-oxo-9-((tetrahydro-2H-pyran-4-yl)methoxy)-10-(thiazol-2-yl)-6,7-dihydro-2H-pyrido[2,1-a]isoquinoline-3-carboxylic Acid] are 0.3 nM and 0.35 nM.
The like results for `COCCCOc1cc2c(cc1-c1cscn1)-c1cc(=O)c(C(=O)O)cn1C(C(C)C)C2` (stereo not drawn) [Example 13, 6-isopropyl-9-(3-methoxypropoxy)-2-oxo-10-(thiazol-4-yl)-6,7-dihydro-2H-pyrido[2,1-a]isoquinoline-3-carboxylic Acid] were, in that order, 0.64 nM and 1.48 nM.
On the same counts, the results for `CC(=O)c1cc2c(cc1-c1ccco1)CC(C(C)C)n1cc(C(=O)O)c(=O)cc1-2` (stereo not drawn) [Example 31, 10-acetyl-9-(furan-2-yl)-6-isopropyl-2-oxo-6,7-dihydro-2H-pyrido[2,1-a]isoquinoline-3-carboxylic Acid] are 6.26 nM and 8.2 nM.
In the case of `CCCCCOc1cc2c(cc1-c1nccs1)-c1cc(=O)c(C(=O)O)cn1C(C(C)C)C2` (stereo not drawn) [Example 20, 6-isopropyl-2-oxo-9-(pentyloxy)-10-(thiazol-2-yl)-6,7-dihydro-2H-pyrido[2,1-a]isoquinoline-3-carboxylic Acid], the concentration for half-maximal inhibition (IC50) was determined as 8.79 nM in test [1] and 8.12 nM in test [2].
The like results for `COC(=O)c1cc2c(cc1N1CCCC1)CC(C(C)C)n1cc(C(=O)O)c(=O)cc1-2` (stereo not drawn) [Example 34, 6-isopropyl-10-(methoxycarbonyl)-2-oxo-9-(pyrrolidin-1-yl)-6,7-dihydro-2H-pyrido[2,1-a]isoquinoline-3-carboxylic Acid] were, in that order, 4.74 nM and 9.85 nM.
For `CC(C)C1Cc2cc(OCCC3CC3)c(-c3nccs3)cc2-c2cc(=O)c(C(=O)O)cn21` (stereo not drawn) [Example 22, 9-(2-cyclopropylethoxy)-6-isopropyl-2-oxo-10-(thiazol-2-yl)-6,7-dihydro-2H-pyrido[2,1-a]isoquinoline-3-carboxylic Acid], the concentration for half-maximal inhibition (IC50) in test [1] was 0.84 nM; in test [2], 0.65 nM.
As for `COCCCOc1cc2c(cc1-c1csc(C)n1)-c1cc(=O)c(C(=O)O)cn1C(C(C)C)C2` (stereo not drawn) [Example 14, 6-isopropyl-9-(3-methoxypropoxy)-10-(2-methylthiazol-4-yl)-2-oxo-6,7-dihydro-2H-pyrido[2,1-a]isoquinoline-3-carboxylic Acid], the values for the half-maximal inhibitory concentration (IC50) in test [1] and in test [2] were 3.36 nM and 7.2 nM, respectively.
With `CC(=O)c1cc2c(cc1N1CCCC1)CC(C(C)C)n1cc(C(=O)O)c(=O)cc1-2` (stereo not drawn) [Example 30, 10-acetyl-6-isopropyl-2-oxo-9-(pyrrolidin-1-yl)-6,7-dihydro-2H-pyrido[2,1-a]isoquinoline-3-carboxylic Acid], the half-inhibitory concentration (IC50) in test [1] was 7.68 nM; in test [2], 7.83 nM.
On the same counts, the results for `COC(=O)c1cc2c(cc1-c1ccc(Cl)o1)CC(C(C)C)n1cc(C(=O)O)c(=O)cc1-2` (stereo not drawn) [Example 74, 9-(5-chlorofuran-2-yl)-6-isopropyl-10-(methoxycarbonyl)-2-oxo-6,7-dihydro-2H-pyrido[2,1-a]isoquinoline-3-carboxylic Acid] are 2.97 nM and 3.68 nM.
In the case of `CC(C)C1Cc2cc(OCc3ccccc3)c(-c3nccs3)cc2-c2cc(=O)c(C(=O)O)cn21` (stereo not drawn) [Example 18, 9-(benzyloxy)-6-isopropyl-2-oxo-10-(thiazol-2-yl)-6,7-dihydro-2H-pyrido[2,1-a]isoquinoline-3-carboxylic Acid], the IC50 in test [1] was 8.09 nM; in test [2] it was 5.53 nM.
